Assay [1] relates to Lasiodiplodia iranensis DWH-2. Put plainly: Morphology of Lasiodiplodia iranensis cultures under shaking conditions. Format: cell-based. As to conditions: shaking 250 rpm, 30° C.
The test system of assay [2] is Lasiodiplodia iranensis DWH-2. Put plainly: JA production by Lasiodiplodia iranensis cultures under shaking conditions, JA content by HPLC. Format: cell-based.
Where [3] appears, read: shaker 250 rpm, 30° C., eight days, 200 mg/L IAA and sodium butyrate, 100 mg/L SA and ASA, 10 mg/L VA, 2 mM H2O2.

Structures are written as SMILES. Like-named read-outs stand apart in the source and are kept apart here.

In the case of `OCCc1ccc(O)cc1` [tyrosol], in assay [1] (100 mg/L tyrosol, seven days), the “effect on fungal morphology” value was “induced mycelial aggregation”.

Turning to `CCCC(CCC)C(=O)[O-].[Na+]` [VA, valproic acid sodium salt], in assay [2] (setting [3]), the “Titer (mg/L), production of JA with a jasmonate production elicitor” value (“Titer (mg/L), production of JA” for short) stood at 350 mg/L.

`CC(C)=CCCC(C)=CCCC(C)=CCO` [farnesol]: the “effect on fungal morphology” value in assay [1] (100 mg/L farnesol, nine days) was “induced mycelial aggregation”.

On to `O=C([O-])c1ccccc1O.[Na+]` [SA, salicylic acid sodium salt], for which the “Titer (mg/L), production of JA” value in assay [2] is 150 mg/L.

On to `CCCC(=O)[O-].[Na+]` [Sodium butyrate, sodium butyrate], for which the “Titer (mg/L), production of JA” value in assay [2] came to 175 mg/L.

In the case of `O=C([O-])Cc1c[nH]c2ccccc12.[Na+]` [IAA, Indole-3-acetic acid sodium salt], in assay [2] (setting [3]), the “Titer (mg/L), production of JA” value was 400 mg/L.

Regarding `OO` [H2O2, hydrogen peroxide], the “Titer (mg/L), production of JA” value in assay [2] (setting [3]) was 160 mg/L.

Take `CC(=O)Oc1ccccc1C(=O)O` [ASA, acetylsalicylic acid]: in assay [2] (setting [3]), the “Titer (mg/L), production of JA” value amounted to 100 mg/L.

Source of the values: patent US20230175033A1, “PRODUCTION OF JASMONATES IN FILAMENTOUS FUNGI” (Sumitomo Chemical Company, Limited, priority 2020, published 2023).
